Measured values published in BigSolDB 2.1.

O=S(=O)([O-])c1cccc2c(S(=O)(=O)[O-])cccc12.[Na+].[Na+]
solubility (mole fraction)
Conditions | in acetone | in ethanol | in isopropanol | in methanol | in water
283.15 K | 5.45e-05 | 0.000107 | 2.55e-05 | 0.00017 | 0.00572
293.15 K | 5.92e-05 | 0.00011 | 5.68e-05 | 0.000221 | 0.00664
303.15 K | 7.41e-05 | 0.00011 | 6.45e-05 | 0.000251 | 0.00784
313.15 K | 9.49e-05 | 0.000147 | 8.74e-05 | 0.00027 | 0.00919
323.15 K | 9.73e-05 | 0.000184 | 9.19e-05 | 0.00028 | 0.0106
